Test results from patent US20230278972A1, “SUBSTITUTED HALOALKYL SULFONANILIDE HERBICIDES” (FMC Corporation, priority 2020, published 2023).

Columns and labels:
Assay type in all cases: in vivo
[1] = test system: barnyardgrass (Echinochloa crus-galli); test: Test A preemergence, barnyardgrass; conditions: Preemergence; for Barnyardgrass plant response rating: 125 g ai/ha, visual injury on 0 to 100 scale (0 no effect, 100 complete control), approximately 10 days; for Plant response rating, Barnyardgrass: 500 g ai/ha, 0 to 100 scale (0 no effect, 100 complete control)
Method in brief: (§1)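 Directed soil spray at planting gave the preemergence treatment, while foliar application to one- to two-leaf seedlings (2–10 cm) gave the postemergence one; pots held a loam and sand mixture and chemicals were carried in a non-phytotoxic solvent with surfactant.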

kochia (Bassia scoparia) [2] = test: Test A preemergence, kochia; conditions: Preemergence; for Kochia plant response rating: 125 g ai/ha, visual injury on 0 to 100 scale (0 no effect, 100 complete control), approximately 10 days; for Plant response rating, Kochia: 500 g ai/ha, 0 to 100 scale (0 no effect, 100 complete control)
Method in brief: as §1

[3] = test system: ragweed (common ragweed, Ambrosia artemisiifolia); test: Test A preemergence, ragweed; conditions: Preemergence; for Ragweed plant response rating: 125 g ai/ha, visual injury on 0 to 100 scale (0 no effect, 100 complete control), approximately 10 days; for Plant response rating, Ragweed: 500 g ai/ha, 0 to 100 scale (0 no effect, 100 complete control)
Method in brief: as §1

[4] = test system: Ryegrass, Italian (Italian ryegrass, Lolium multiflorum); test: Test A preemergence, Ryegrass, Italian; conditions: Preemergence; for Ryegrass, Italian plant response rating: 125 g ai/ha, visual injury on 0 to 100 scale (0 no effect, 100 complete control), approximately 10 days; for Plant response rating, Ryegrass, Italian: 500 g ai/ha, 0 to 100 scale (0 no effect, 100 complete control)
Method in brief: as §1

[5] = test system: Foxtail, Giant (giant foxtail, Setaria faberi); test: Test A preemergence, Foxtail, Giant; conditions: Preemergence; for Foxtail, Giant plant response rating: 125 g ai/ha, visual injury on 0 to 100 scale (0 no effect, 100 complete control), approximately 10 days; for Plant response rating, Foxtail, Giant: 500 g ai/ha, 0 to 100 scale (0 no effect, 100 complete control)
Method in brief: as §1

[6] = test system: pigweed (Amaranthus retroflexus); test: Test A preemergence, pigweed; conditions: for Pigweed plant response rating: 125 g ai/ha, visual injury on 0 to 100 scale (0 no effect, 100 complete control), approximately 10 days; for Plant response rating, Pigweed: 500 g ai/ha, 0 to 100 scale (0 no effect, 100 complete control)
Method in brief: as §1

[7] = test system: barnyardgrass (Echinochloa crus-galli); test: Test A postemergence, barnyardgrass; conditions: Postemergence, 0 to 100 scale (0 no effect, 100 complete control)
Method in brief: as §1

kochia (Bassia scoparia) [8] = test: Test A postemergence, kochia; conditions: Postemergence, 0 to 100 scale (0 no effect, 100 complete control)
Method in brief: as §1

[9] = test system: ragweed (common ragweed, Ambrosia artemisiifolia); test: Test A postemergence, ragweed; conditions: Postemergence, 0 to 100 scale (0 no effect, 100 complete control)
Method in brief: as §1

[10] = test system: Ryegrass, Italian (Italian ryegrass, Lolium multiflorum); test: Test A postemergence, Ryegrass, Italian; conditions: Postemergence, 0 to 100 scale (0 no effect, 100 complete control)
Method in brief: as §1

[11] = test system: Foxtail, Giant (giant foxtail, Setaria faberi); test: Test A postemergence, Foxtail, Giant; conditions: Postemergence, 0 to 100 scale (0 no effect, 100 complete control)
Method in brief: as §1

[12] = test system: pigweed (Amaranthus retroflexus); test: Test A postemergence, pigweed; conditions: Postemergence, 0 to 100 scale (0 no effect, 100 complete control)
Method in brief: as §1

[13] = test system: wheat (Triticum aestivum); test: Test A postemergence, wheat; conditions: Postemergence, 0 to 100 scale (0 no effect, 100 complete control)
Method in brief: as §1

corn (Zea mays) = test: Test A postemergence, corn; conditions: Postemergence, 0 to 100 scale (0 no effect, 100 complete control)
Method in brief: as §1

[14] = test system: blackgrass (Alopecurus myosuroides); test: Test A postemergence, blackgrass; conditions: Postemergence, 0 to 100 scale (0 no effect, 100 complete control)
Method in brief: as §1

[15] = test system: galium (catchweed bedstraw, Galium aparine); test: Test A postemergence, galium; conditions: Postemergence, 0 to 100 scale (0 no effect, 100 complete control)
Method in brief: as §1

[16] = 125 g ai/ha, visual injury approx. 10 days
[17] = 500 g ai/ha, visual injury, approx. 10 days

Row | SMILES | Barnyardgrass plant response rating [1] | Plant response rating, Barnyardgrass [1] | Kochia plant response rating (kochia (Bassia scoparia) [2]) | Plant response rating, Kochia (kochia (Bassia scoparia) [2]) | Ragweed plant response rating [3] | Plant response rating, Ragweed [3] | Ryegrass, Italian plant response rating [4] | Plant response rating, Ryegrass, Italian [4] | Foxtail, Giant plant response rating [5] | Plant response rating, Foxtail, Giant [5] | Pigweed plant response rating [6] | Plant response rating, Pigweed [6] | Plant response rating, Barnyardgrass [7, 16] | Plant response rating, Barnyardgrass [7, 17] | Plant response rating, Kochia (kochia (Bassia scoparia) [8]; [16]) | Plant response rating, Kochia (kochia (Bassia scoparia) [8]; [17]) | Plant response rating, Ragweed [9, 16] | Plant response rating, Ragweed [9, 17] | Plant response rating, Ryegrass, Italian [10, 16] | Plant response rating, Ryegrass, Italian [10, 17] | also measured
1 | Cc1cc(Cl)c(N(S(=O)(=O)C(F)(F)F)S(=O)(=O)C(F)(F)F)cc1-c1cn(C)c(=O)n(C)c1=O [Compound 38] | 90 | 100 | 80 | 90 | 70 | 90 | 100 | 100 | 100 | 100 | 40 | 80 | 60 | 80 | 60 | 70 | 80 | 90 | 60 | 80 | Plant response rating, Foxtail, Giant [11, 16]: 90; Plant response rating, Foxtail, Giant [11, 17]: 90; Plant response rating, Pigweed [12, 16]: 70; Plant response rating, Pigweed [12, 17]: 90; Plant response rating, Wheat [13, 16]: 70; Plant response rating, Wheat [13, 17]: 70; Plant response rating, Corn (corn (Zea mays); [16]): 20; Plant response rating, Corn (corn (Zea mays); [17]): 70; Plant response rating, Blackgrass [14, 16]: 80; Plant response rating, Blackgrass [14, 17]: 90; Plant response rating, Galium [15, 16]: 80; Plant response rating, Galium [15, 17]: 90
2 | Cc1cc(C)c(N(S(C)(=O)=O)S(=O)(=O)C(F)(F)F)cc1-c1cc(C(C)C)nn(C)c1=O [Compound 39] | 40 | 90 | 0 | 0 | 0 | 30 | 30 | 70 | 10 | 90 | 0 | 0 | 0 | 30 | 0 | 0 | 20 | 70 | 0 | 40 | Plant response rating, Foxtail, Giant [11, 16]: 0; Plant response rating, Foxtail, Giant [11, 17]: 0; Plant response rating, Pigweed [12, 16]: 0; Plant response rating, Pigweed [12, 17]: 0; Plant response rating, Wheat [13, 16]: 60; Plant response rating, Wheat [13, 17]: 60; Plant response rating, Corn (corn (Zea mays); [16]): 0; Plant response rating, Corn (corn (Zea mays); [17]): 0; Plant response rating, Blackgrass [14, 16]: 0; Plant response rating, Blackgrass [14, 17]: 0; Plant response rating, Galium [15, 16]: 0; Plant response rating, Galium [15, 17]: 0
